Data from EP3333154A1, “CRYSTALLINE FORM OF A SELECTIVE 5-HT6 RECEPTOR ANTAGONIST” (SANDOZ AG, priority 2016, dated 2018).

Tests used:
[1] = Time-dependent solubility in 0.1 N aqueous HCl solution; details: for Concentration: 0.1 N HCl, (25 ± 1) °C, hydrochloride
Experimental: The time dependent solubilities of idalopirdine hydrochloride form III and form V in 0.1 N HCl have been determined. Thereby, saturated solutions of both forms have been stirred at controlled temperature of (25 ± 1) °C and known aliquots have been taken after 5, 30 and 60 minutes. After filtering the solids, the idalopiridine concentrations of the remaining mother liquors were determined by HPLC using the same method as provided in Example 3 herein. The absolute solubility values were calculated from a calibration curve generated with solutions of known idalopirdine concentrations. […] Table 4: Time dependent solubility of idalopirdine hydrochloride form III and form V in 0.1 N HCl at (25 ± 1) °C

[2] = Accelerated stress test at 40 °C/75% RH (HPLC impurities and PXRD); type: physicochemical; details: 1 month at 40 °C/ 75% RH, open dish
Experimental: Idalopirdine hydrochloride form V was subjected to accelerated stress conditions of 40 °C and 75% RH in an open dish for one month.

[3] = Differential scanning calorimetry (thermal stability); type: physicochemical; details: DSC, heating rate 10 K/min
Experimental: Differential scanning calorimetry (DSC) was performed on a Mettler Polymer DSC R instrument. The sample (4.36 mg) was heated in a 40 microL aluminium pan with pierced aluminium lid from room temperature to 250 °C at a rate of 10 K/min. Nitrogen (purge rate 50 mL/min) was used as purge gas.

[4] = Gravimetric moisture sorption (GMS); type: physicochemical
Experimental: Moisture sorption and desorption curves were recorded with an SPSx-1µ moisture sorption analyzer (ProUmid, Ulm). The measurement cycle was started at ambient RH of 45%. RH was then decreased to 5% in 5% steps, followed by a further decrease to 3% and to 0%. […] Finally, RH was increased to 40% in 5% steps.
The time per step was set to a minimum of 2 hours and a maximum of 6 hours. If an equilibrium condition with a constant mass of ± 0.01 % within 1 hour was reached before the maximum time for all examined samples the sequential humidity step was applied before the maximum time of 6 hours. If no equilibrium was achieved the consecutive humidity step was applied after the maximum time of 6 hours. The temperature was 25 ± 0.1 °C.

[5] = listed as Idalopirdine hydrochloride form V of the present invention

Row | Concentration ([1]; 5 min) [µg/mL] | Concentration ([1]; 30 min) [µg/mL] | Concentration ([1]; 60 min) [µg/mL] | higher concentration in 0.1 N HCl [1] | Concentration, difference to Form III ([1]; 5 min) | Concentration, difference to Form III ([1]; 30 min) | Concentration, difference to Form III ([1]; 60 min) | PXRD before and after ([2]; listed as Idalopirdine hydrochloride form V) | Increase of total impurities (HPLC at 225nm) [2, 5] | PXRD before and after [2, 5] | Increase of total impurities (HPLC at 225nm) ([2]; hydrochloride) | thermally stable up to a temperature [3] | PXRDs before and after the GMS experiment ([4]; 0 to 95% RH, 25 ± 0.1 °C) | mass increase in the sorption cycle ([4]; sorption cycle from 0 to 95% RH, 25 °C) [w-%] | SMILES
1 | 500 | 600 | 800 | – | – | – | – | – | – | – | – | – | – | – | Cl.Fc1ccc2c(CCNCc3cccc(OCC(F)(F)C(F)F)c3)c[nH]c2c1 [Form III, N-[2-(6-fluoro-1H-indol-3-yl)ethyl]-3-(2,2,3,3-tetrafluoropropoxy)benzylamine hydrochloride, reference compound]
2 | 700 | 900 | 900 | up to 50% | +40% | +50% | +12.5% | No change | +0.7 area% | unchanged | about 0.7 area% | at least 120 °C | identical | 0.5 | Cl.Fc1ccc2c(CCNCc3cccc(OCC(F)(F)C(F)F)c3)c[nH]c2c1 [Form V, N-[2-(6-fluoro-1H-indol-3-yl)ethyl]-3-(2,2,3,3-tetrafluoropropoxy)benzylamine hydrochloride]
